Values of other authors in PubChem BioAssay AID1259409 (Chemical Carcinogenesis Research Information System (CCRIS), 2018).

Test system: rodent chemically induced tumor inhibition, incidence and multiplicity
Test: CCRIS tumor inhibitor studies
Conditions: Dose [Inhibitor]: 0, Promoter: NONE USED

| Structure (SMILES) | tumour outcome (control, treated, inhibition, significance) (Carcinogen: METHYLCHOLANTHRENE, 56-49-5, 5.5 MG IN 0.05 ML SUNFLOWER OIL 1/WK FOR 1 YR BEGINNING POST CARCINOGEN TREATMENT (STUDY DURATION: 24 MO), Route [Inhibitor]: GAVAGE, Species: MOUSE, Strain/Sex: SWISS/FEMALE, Target Tissue: Type of Lesion: LUNG: PAPILLARY ADENOMA AND ADENOCARCINOMA, Dose [Carcinogen]: 0.01 MG ON D 1, 7, 14 AND 21 AFTER BIRTH) | tumour outcome (control, treated, inhibition, significance) (Carcinogen: METHYLCHOLANTHRENE, 56-49-5, 5.5 MG IN 0.05 ML SUNFLOWER OIL 1/WK FOR 1 YR BEGINNING POST CARCINOGEN TREATMENT (STUDY DURATION: 24 MO), Route [Inhibitor]: GAVAGE, Species: MOUSE, Strain/Sex: SWISS/MALE, Target Tissue: Type of Lesion: LIVER: HEPATOCELLULAR ADENOMA AND CARCINOMA) | tumour outcome (control, treated, inhibition, significance) (Carcinogen: METHYLCHOLANTHRENE, 56-49-5, 5.5 MG IN 0.05 ML SUNFLOWER OIL 1/WK FOR 1 YR BEGINNING POST CARCINOGEN TREATMENT (STUDY DURATION: 24 MO), Route [Inhibitor]: GAVAGE, Species: MOUSE, Strain/Sex: SWISS/MALE, Target Tissue: Type of Lesion: LUNG: PAPILLARY ADENOMA AND ADENOCARCINOMA, Dose [Carcinogen]: 0.01 MG ON D 1, 7, 14 AND 21 AFTER BIRTH) | tumour outcome (control, treated, inhibition, significance) (Carcinogen: METHYLCHOLANTHRENE, 56-49-5, 5.5 MG IN 0.05 ML SUNFLOWER OIL 1/WK FOR 1 YR BEGINNING POST CARCINOGEN TREATMENT (STUDY DURATION: 24 MO), Route [Inhibitor]: GAVAGE, Species: MOUSE, Strain/Sex: SWISS/MALE, Target Tissue: Type of Lesion: SKIN: SARCOMA AND CARCINOMA, Dose [Carcinogen]: 0.01 MG ON D 1, 7, 14 AND 21 AFTER BIRTH) | tumour outcome (control, treated, inhibition, significance) (Carcinogen: METHYLCHOLANTHRENE, 56-49-5, 5.5 MG IN 0.05 ML SUNFLOWER OIL 1/WK FOR 1 YR BEGINNING POST CARCINOGEN TREATMENT (STUDY DURATION: 24 MO), Route [Inhibitor]: GAVAGE, Species: MOUSE, Strain/Sex: SWISS/MALE, Target Tissue: Type of Lesion: SPLEEN: LYMPHOMA, Dose [Carcinogen]: 0.01 MG ON D 1, 7, 14 AND 21 AFTER BIRTH) | tumour outcome (control, treated, inhibition, significance) (Carcinogen: SAFROLE, 94-59-7, 5.5 MG IN 0.05 ML SUNFLOWER OIL 1/WK FOR 1 YR BEGINNING POST CARCINOGEN TREATMENT (STUDY DURATION: 24 MO), Route [Inhibitor]: GAVAGE, Species: MOUSE, Strain/Sex: SWISS/FEMALE, Target Tissue: Type of Lesion: LUNG: PAPILLARY ADENOCARCINOMA, Dose [Carcinogen]: 0.2 MG ON D 1 AND 7 AFTER BIRTH THEN 0.4 MG ON D 14 AND 21) | tumour outcome (control, treated, inhibition, significance) (Carcinogen: SAFROLE, 94-59-7, 5.5 MG IN 0.05 ML SUNFLOWER OIL 1/WK FOR 1 YR BEGINNING POST CARCINOGEN TREATMENT (STUDY DURATION: 24 MO), Route [Inhibitor]: GAVAGE, Species: MOUSE, Strain/Sex: SWISS/FEMALE, Target Tissue: Type of Lesion: SKIN: SARCOMA, Dose [Carcinogen]: 0.2 MG ON D 1 AND 7 AFTER BIRTH THEN 0.4 MG ON D 14 AND 21) | tumour outcome (control, treated, inhibition, significance) (Carcinogen: SAFROLE, 94-59-7, 5.5 MG IN 0.05 ML SUNFLOWER OIL 1/WK FOR 1 YR BEGINNING POST CARCINOGEN TREATMENT (STUDY DURATION: 24 MO), Route [Inhibitor]: GAVAGE, Species: MOUSE, Strain/Sex: SWISS/MALE, Target Tissue: Type of Lesion: LIVER: HEPATOCELLULAR CARCINOMA, Dose [Carcinogen]: 0.2 MG ON D 1 AND 7 AFTER BIRTH THEN 0.4 MG ON D 14 AND 21) | tumour outcome (control, treated, inhibition, significance) (Carcinogen: SAFROLE, 94-59-7, 5.5 MG IN 0.05 ML SUNFLOWER OIL 1/WK FOR 1 YR BEGINNING POST CARCINOGEN TREATMENT (STUDY DURATION: 24 MO), Route [Inhibitor]: GAVAGE, Species: MOUSE, Strain/Sex: SWISS/MALE, Target Tissue: Type of Lesion: LUNG: PAPILLARY ADENOCARCINOMA, Dose [Carcinogen]: 0.2 MG ON D 1 AND 7 AFTER BIRTH THEN 0.4 MG ON D 14 AND 21) | tumour outcome (control, treated, inhibition, significance) (Carcinogen: SAFROLE, 94-59-7, 5.5 MG IN 0.05 ML SUNFLOWER OIL 1/WK FOR 1 YR BEGINNING POST CARCINOGEN TREATMENT (STUDY DURATION: 24 MO), Route [Inhibitor]: GAVAGE, Species: MOUSE, Strain/Sex: SWISS/MALE, Target Tissue: Type of Lesion: SKIN: SARCOMA, Dose [Carcinogen]: 0.2 MG ON D 1 AND 7 AFTER BIRTH THEN 0.4 MG ON D 14 AND 21) | tumour outcome (control, treated, inhibition, significance) (Carcinogen: SAFROLE, 94-59-7, 5.5 MG IN 0.05 ML SUNFLOWER OIL 1/WK FOR 1 YR BEGINNING POST CARCINOGEN TREATMENT (STUDY DURATION: 24 MO), Route [Inhibitor]: GAVAGE, Species: MOUSE, Strain/Sex: SWISS/MALE, Target Tissue: Type of Lesion: SPLEEN: LYMPHOMA, Dose [Carcinogen]: 0.2 MG ON D 1 AND 7 AFTER BIRTH THEN 0.4 MG ON D 14 AND 21) | tumour outcome (control, treated, inhibition, significance) (Carcinogen: SAFROLE, 94-59-7, 5.5 MG IN 0.05 ML SUNFLOWER OIL 1/WK FOR 1 YR BEGINNING POST CARCINOMA TREATMENT (STUDY DURATION: 24 MO), Route [Inhibitor]: GAVAGE, Species: MOUSE, Strain/Sex: SWISS/FEMALE, Target Tissue: Type of Lesion: SPLEEN: LYMPHOMA, Dose [Carcinogen]: 0.2 MG ON D 1 AND 7 AFTER BIRTH THEN 0.4 MG ON D 14 AND 21) | tumour outcome (control, treated, inhibition, significance) (Carcinogen: TANNIC ACID, 1401-55-4, 5.5 MG IN 0.05 ML SUNFLOWER OIL 1/WK FOR 1 YR BEGINNING POST CARCINOGEN TREATMENT (STUDY DURATION: 24 MO), Route [Inhibitor]: GAVAGE, Species: MOUSE, Strain/Sex: SWISS/FEMALE, Target Tissue: Type of Lesion: LUNG: PAPILLARY ADENOCARCINOMA, Dose [Carcinogen]: 25 MG/KG BW ON D 1, 7, 14 AND 21 AFTER BIRTH) | tumour outcome (control, treated, inhibition, significance) (Carcinogen: TANNIC ACID, 1401-55-4, 5.5 MG IN 0.05 ML SUNFLOWER OIL 1/WK FOR 1 YR BEGINNING POST CARCINOGEN TREATMENT (STUDY DURATION: 24 MO), Route [Inhibitor]: GAVAGE, Species: MOUSE, Strain/Sex: SWISS/FEMALE, Target Tissue: Type of Lesion: SPLEEN: LYMPHOMA, Dose [Carcinogen]: 25 MG/KG BW ON D 1, 7, 14 AND 21 AFTER BIRTH) | tumour outcome (control, treated, inhibition, significance) (Carcinogen: TANNIC ACID, 1401-55-4, 5.5 MG IN 0.05 ML SUNFLOWER OIL 1/WK FOR 1 YR BEGINNING POST CARCINOGEN TREATMENT (STUDY DURATION: 24 MO), Route [Inhibitor]: GAVAGE, Species: MOUSE, Strain/Sex: SWISS/MALE, Target Tissue: Type of Lesion: LUNG: PAPILLARY ADENOCARCINOMA, Dose [Carcinogen]: 25 MG/KG BW ON D 1, 7, 14 AND 21 AFTER BIRTH) | tumour outcome (control, treated, inhibition, significance) (Carcinogen: TANNIC ACID, 1401-55-4, 5.5 MG IN 0.05 ML SUNFLOWER OIL 1/WK FOR 1 YR BEGINNING POST CARCINOGEN TREATMENT (STUDY DURATION: 24 MO), Route [Inhibitor]: GAVAGE, Species: MOUSE, Strain/Sex: SWISS/MALE, Target Tissue: Type of Lesion: SPLEEN: LYMPHOMA, Dose [Carcinogen]: 25 MG/KG BW ON D 1, 7, 14 AND 21 AFTER BIRTH) | tumour outcome (control, treated, inhibition, significance) (Carcinogen: N-METHYL-N'-NITRO-N-NITROSOGUANIDINE, 70-25-7, 200 MG/KG/BW SUSPENSION IN OLIVE OIL 1/2 D BEGINNING POST CARCINOGEN TREATMENT AND CONTINUING FOR DURATION OF STUDY (, Route [Inhibitor]: SUBCUTANEOUS, Species: RAT, Strain/Sex: WISTAR/MALE, Target Tissue: Type of Lesion: STOMACH: ADENOCARCINOMA, Dose [Carcinogen]: 50 UG/ML IN DRINKING WATER FOR 25 WK) |
| --- | --- | --- | --- | --- | --- | --- | --- | --- | --- | --- | --- | --- | --- | --- | --- | --- | --- |
| O=C(/C=C/C=C/c1ccc2c(c1)OCO2)N1CCCCC1 | 7/11 (64%), 9/12 (75%), -17%, not calculated | 3/13 (23%), 4/13 (31%), -35%, not calculated | 10/13 (77%), 10/13 (77%), 0%, not significant | 5/13 (38%), 2/13 (15%), 61%, not calculated | 2/13 (15%), 3/13 (23%), -53%, not calculated | 3/18 (17%), 2/19 (11%), 35%, not calculated | 2/18 (11%), 0/19 (0%), 100%, not calculated | 7/24 (29%), 1/23 (4%), 86%, p<0.05 | 5/24 (21%), 2/23 (9%), 57%, not calculated | 2/24 (8%), 0/23 (0%), 100%, not calculated | 6/24 (25%), 3/23 (13%), 48%, not calculated | 9/18 (50%), 7/19 (37%), 26%, not calculated | 2/8 (25%), 1/9 (11%), 56%, not calculated | 4/8 (50%), 4/9 (44%), 12%, not calculated | 3/12 (25%), 2/12 (17%), 32%, not calculated | 5/12 (42%), 3/12 (25%), 40%, not calculated | – |
| O=C1CCCO1 | – | – | – | – | – | – | – | – | – | – | – | – | – | – | – | – | 16/20 (80%), 13/20 (65%), 19%, not significant |
